Test results taken from publication PMC8402075, “Synthesis and Antiplasmodial Activity of Bisindolylcyclobutenediones” (Molecules, 2021).
Like-named read-outs stand apart in the source and are kept apart here.

What was measured:
[1] = tested on: P. falciparum (NF54-luc strain) erythrocytic stages; experiment: Luciferase-based viability screening for antiplasmodial activity; type: cell-based, Plasmodium falciparum; details: for inhibition at 3 µM: read-out: Inhibition at 3 µM [%]
Method: All synthesized new bisindolylcyclobutenediones 2a–2ar and the related bisindolylmaleimide 8 [37] were screened for inhibition of erythrocytic stages of Plasmodium falciparum employing a bioluminescence-based viability assay on transgenic parasites that constitutively express luciferase (PfNF54-luc). Initially, the compounds were evaluated in single-dose test runs (3 µM). If >20% viability inhibition was observed, dose-response curves were generated and IC50 values were calculated (Table 1). […] The bisindolylmaleimide 8 [37] inhibited the parasites in a single-digit micromolar concentration, similar to many of the bisindolylcyclobutenediones in the study. Because the bisindolylcyclobutenediones 2 display a higher degree of structural novelty, only this compound class was further pursued for its antiplasmodial activity. […] These structural features were considered unfavorable for orientations as illustrated in Figure 2 with 2a and Pfmap-2, PfPK5, PfCDPK2, Pflammer, and PfPK7, respectively. However, a structure generated for 2a in PfGSK-3 in which the indole units are oriented perpendicular to each other (Figure 2a) was considered compatible with the indicated substitution pattern. Consequently, the potent antiplasmodial derivatives 2k, 2ad, and 2ae were tested in a kinase Glo assay for inhibition of recombinant PfGSK-3. […] For the compounds with particularly potent antiplasmodial activity, cytotoxicity was also determined using the human cell line THP-1 to assess selectivity with respect to parasite cells (Table 2).
Screening for the antiplasmodial activity of test compounds was performed by luciferase-based viability assays as reported previously. In brief, asexual erythrocytic stages of transgenic NF54-luc P. falciparum were cultured as described elsewhere. Parasite cultures with parasitaemia of 0.5–1% were incubated in the presence of 3 µM test compounds for 48 h. After the subsequent addition of Bright-Glo substrate solution (Promega, Madison, WI), the resulting luminescence was measured. Untreated cultures (0.01% DMSO) were used as negative controls. Experiments were performed in triplicate and were repeated as a whole at least twice. Blasticidin (Sigma-Aldrich, St. Louis, MO, USA) was included as a positive control.

human THP-1 cell line = experiment: Cytotoxicity assay on human THP-1 cell line (Alamar Blue); type: cell-based; details: for Selectivity Index (SI) = IC50, THP-1/IC50, Pf: THP-1 versus P. falciparum NF54-luc; for IC50: human THP-1 cell line, 48 h, Alamar Blue
Method: The cytotoxicity of selected antiplasmodial bisindolylcyclobutenediones was determined against THP-1 cells following a protocol described previously. In brief, THP-1 cells were incubated with test compounds in serial compound dilutions in the presence of 0.01% DMSO at 37 °C. After 48 h, Alamar Blue was added, and after 4 h the fluorescence was read (λex = 544 nm, λem = 590 nm) using a microplate reader. THP-1 cells in wells containing medium plus 0.01% DMSO served as negative controls. Experiments were performed in triplicate and were repeated as a whole at least twice.

[2] = Plasmodium falciparum, NF54, 48 h, read-out: IC50 [µM], concentration for 50% inhibition of P. falciparum (NF54-luc strain) erythrocytic stages
[3] = Plasmodium falciparum, NF54, 48 h
[4] = Plasmodium falciparum, NF54, read-out: IC50 P. falciparum (quoted in the discussion)
[5] = Plasmodium falciparum, NF54, read-out: IC50, Pf [µM]

| Structure (SMILES) | IC50 [1, 2] | inhibition at 3 µM [1, 3] | also measured |
| --- | --- | --- | --- |
| O=c1c(-c2c[nH]c3ccccc23)c(-c2c[nH]c3ccccc23)c1=O [2a, 3,4-Bis(1H-indol-3-yl)cyclobut-3-ene-1,2-dione] | 8.33 µM | – | – |
| COc1ccc2[nH]cc(-c3c(-c4c[nH]c5ccc(F)cc45)c(=O)c3=O)c2c1 [2ab, 3-(5-Fluoro-1H-indol-3-yl)-4-(5-methoxy-1H-indol-3-yl)cyclobut-3-ene-1,2-dione] | – | 19.2 ± 3.1% | – |
| COc1ccc2[nH]cc(-c3c(-c4c[nH]c5ccc(Cl)cc45)c(=O)c3=O)c2c1 [2ac, 3-(5-Chloro-1H-indol-3-yl)-4-(5-methoxy-1H-indol-3-yl)cyclobut-3-ene-1,2-dione] | 1.52 µM | – | – |
| COc1ccc2[nH]cc(-c3c(-c4cn(C)c5ccc(Br)cc45)c(=O)c3=O)c2c1 [2ag, 3-(5-Bromo-1-methyl-1H-indol-3-yl)-4-(5-methoxy-1H-indol-3-yl)cyclobut-3-ene-1,2-dione] | – | -0.06 ± 2.43% | IC50 [1, 4]: > 10 µM |
| COc1ccc2[nH]cc(-c3c(-c4c[nH]c5ccc(C#N)cc45)c(=O)c3=O)c2c1 [2ah, 3-[2-(5-Methoxy-1H-indol-3-yl)-3,4-dioxocyclobut-1-en-1-yl]-1H-indole-5-carbonitrile] | 6.92 µM | – | – |
| COc1ccc2[nH]cc(-c3c(-c4c[nH]c5c(Cl)cccc45)c(=O)c3=O)c2c1 [2ai, 3-(7-Chloro-1H-indol-3-yl)-4-(5-methoxy-1H-indol-3-yl)cyclobut-3-ene-1,2-dione] | 0.691 µM | 84.5 ± 1% | Selectivity Index (SI) = IC50, THP-1/IC50, Pf (human THP-1 cell line): 259; IC50 (human THP-1 cell line): 179 µM; IC50 [1, 5]: 0.69 µM |
| COc1ccc2[nH]cc(-c3c(-c4c[nH]c5c(Br)cccc45)c(=O)c3=O)c2c1 [2aj, 3-(7-Bromo-1H-indol-3-yl)-4-(5-methoxy-1H-indol-3-yl)cyclobut-3-ene-1,2-dione] | 0.296 µM | 99.5 ± 0.4% | Selectivity Index (SI) = IC50, THP-1/IC50, Pf (human THP-1 cell line): 4.7; IC50 (human THP-1 cell line): 1.42 µM; IC50 [1, 5]: 0.3 µM |
| COc1ccc2[nH]cc(-c3c(-c4c[nH]c5c(I)cccc45)c(=O)c3=O)c2c1 [2ak, 3-(7-Iodo-1H-indol-3-yl)-4-(5-methoxy-1H-indol-3-yl)cyclobut-3-ene-1,2-dione] | 0.116 µM | 98.8 ± 1.2% | Selectivity Index (SI) = IC50, THP-1/IC50, Pf (human THP-1 cell line): 7.0; IC50 (human THP-1 cell line): 0.84 µM; IC50 [1, 5]: 0.12 µM |
| CCc1cccc2c(-c3c(-c4c[nH]c5ccc(OC)cc45)c(=O)c3=O)c[nH]c12 [2al, 3-(7-Ethyl-1H-indol-3-yl)-4-(5-methoxy-1H-indol-3-yl)cyclobut-3-ene-1,2-dione] | 0.511 µM | 87 ± 0.5% | Selectivity Index (SI) = IC50, THP-1/IC50, Pf (human THP-1 cell line): 1.4; IC50 (human THP-1 cell line): 0.7 µM; IC50 [1, 5]: 0.51 µM |
| COc1ccc2[nH]cc(-c3c(-c4c[nH]c5cc(Br)ccc45)c(=O)c3=O)c2c1 [2am, 3-(6-Bromo-1H-indol-3-yl)-4-(5-methoxy-1H-indol-3-yl)cyclobut-3-ene-1,2-dione] | – | 9.55 ± 5.8% | – |
| COc1ccc2[nH]cc(-c3c(-c4c[nH]c5cccc(Br)c45)c(=O)c3=O)c2c1 [2an, 3-(4-Bromo-1H-indol-3-yl)-4-(5-methoxy-1H-indol-3-yl)cyclobut-3-en-1,2-dione] | – | 25.7 ± 2.7% | – |
| COc1ccc2c(c1)c(-c1c(-c3c[nH]c4ccc(Br)cc34)c(=O)c1=O)cn2C [2ao, 3-(5-Bromo-1H-indol-3-yl)-4-(5-methoxy-1-methyl-1H-indol-3-yl)cyclobut-3-en-1,2-dione] | 0.504 µM | 95.4 ± 1.1% | Selectivity Index (SI) = IC50, THP-1/IC50, Pf (human THP-1 cell line): 6.3; IC50 (human THP-1 cell line): 3.13 µM; IC50 [1, 5]: 0.5 µM; IC50 [1, 4]: 0.54 µM |
| O=c1c(-c2c[nH]c3ccc(O)cc23)c(-c2c[nH]c3ccc(Br)cc23)c1=O [2ap, 3-(5-Bromo-1H-indol-3-yl)-4-(5-hydroxy-1H-indol-3-yl)cyclobut-3-ene-1,2-dione] | – | 2.52 ± 1.4% | – |
| O=c1c(-c2c[nH]c3ccc(I)cc23)c(-c2c[nH]c3ccc(I)cc23)c1=O [2aq, 3,4-Bis(5-iodo-1H-indol-3-yl)cyclobut-3-ene-1,2-dione] | – | 1.79 ± 1.8% | – |
| O=c1c(-c2c[nH]c3ccccc23)c(-c2c[nH]c3ccc(Br)cc23)c1=O [2b, 3-(5-Bromo-1H-indol-3-yl)-4-(1H-indol-3-yl)cyclobut-3-ene-1,2-dione] | 3.02 µM | – | Selectivity Index (SI) = IC50, THP-1/IC50, Pf (human THP-1 cell line): 7.6; IC50 (human THP-1 cell line): 23 µM; IC50 [1, 5]: 3.02 µM; IC50 [1, 4]: 3 µM |
| O=c1c(-c2c[nH]c3ccccc23)c(-c2c[nH]c3ccc(Cl)cc23)c1=O [2c, 3-(5-Chloro-1H-indol-3-yl)-4-(1H-indol-3-yl)cyclobut-3-ene-1,2-dione] | 4.23 µM | – | – |

| Structure (SMILES) | IC50 [1, 2] | inhibition at 3 µM [1, 3] | also measured |
| --- | --- | --- | --- |
| O=c1c(-c2c[nH]c3ccccc23)c(-c2c[nH]c3ccc(OCc4ccccc4)cc23)c1=O [2e, 3-[5-(Benzyloxy)-1H-indol-3-yl]-4-(1H-indol-3-yl)cyclobut-3-ene-1,2-dione] | – | -4.43 ± 10.6% | – |
| N#Cc1ccc2[nH]cc(-c3c(-c4c[nH]c5ccccc45)c(=O)c3=O)c2c1 [2f, 3-[2-(1H-Indol-3-yl)-3,4-dioxocyclobut-1-ene-1-yl]-1H-indol-5-carbonitrile] | 6.72 µM | – | – |
| Cc1[nH]c2ccccc2c1-c1c(-c2c[nH]c3ccccc23)c(=O)c1=O [2g, 3-(1H-Indol-3-yl)-4-(2-methyl-1H-indol-3-yl)cyclobut-3-ene-1,2-dione] | > 30 µM | – | – |
| O=c1c(-c2c[nH]c3ccccc23)c(-c2c(-c3ccccc3)[nH]c3ccccc23)c1=O [2h, 3-(1H-Indol-3-yl)-4-(2-phenyl-1H-indol-3-yl)cyclobut-3-ene-1,2-dione] | 6.38 µM | – | Selectivity Index (SI) = IC50, THP-1/IC50, Pf (human THP-1 cell line): 1.0; IC50 (human THP-1 cell line): 6.37 µM; IC50 [1, 5]: 6.38 µM |
| Cn1cc(-c2c(-c3cn(C)c4ccccc34)c(=O)c2=O)c2ccccc21 [2i, 3,4-Bis(1-methyl-1H-indol-3-yl)cyclobut-3-ene-1,2-dione] | – | 3.53 ± 1.7% | – |
| O=c1c(-c2c(-c3ccccc3)[nH]c3ccccc23)c(-c2c(-c3ccccc3)[nH]c3ccccc23)c1=O [2m, 3,4-Bis(2-phenyl-1H-indol-3-yl)cyclobut-3-ene-1,2-dione] | 2.47 µM | – | – |
| O=c1c(-c2c[nH]c3ccc(Br)cc23)c(-c2c[nH]c3ccc(Br)cc23)c1=O [2o, 3,4-Bis(5-bromo-1H-indol-3-yl)cyclobut-3-ene-1,2-dione] | > 30 µM | – | – |
| N#Cc1ccc2[nH]cc(-c3c(-c4c[nH]c5ccc(C#N)cc45)c(=O)c3=O)c2c1 [2p, 3,3’-(3,4-Dioxocyclobut-1-ene-1,2-diyl)bis(1H-indole-5-carbonitrile)] | – | -3.1 ± 0.9% | – |
| Cn1cc(-c2c(-c3c[nH]c4ccccc34)c(=O)c2=O)c2ccccc21 [2q, 3-(1H-Indol-3-yl)-4-(1-methyl-1H-indol-3-yl)cyclobut-3-ene-1,2-dione] | 2.97 µM | – | Selectivity Index (SI) = IC50, THP-1/IC50, Pf (human THP-1 cell line): 4.7; IC50 (human THP-1 cell line): 14 µM; IC50 [1, 5]: 2.97 µM |
| Cn1cc(-c2c(-c3c[nH]c4ccc(Br)cc34)c(=O)c2=O)c2ccccc21 [2t, 3-(5-Bromo-1H-indol-3-yl)-4-(1-methyl-1H-indol-3-yl)cyclobut-3-ene-1,2-dione] | – | 1.38 ± 3.3% | – |
| COc1ccc2[nH]cc(-c3c(-c4c(C)[nH]c5ccccc45)c(=O)c3=O)c2c1 [2v, 3-(5-Methoxy-1H-indol-3-yl)-4-(2-methyl-1H-indol-3-yl)cyclobut-3-ene-1,2-dione] | 10 µM | – | – |
| Cc1[nH]c2ccccc2c1-c1c(-c2c(-c3ccccc3)[nH]c3ccccc23)c(=O)c1=O [2w, 3-(2-Methyl-1H-indol-3-yl)-4-(2-phenyl-1H-indol-3-yl)cyclobut-3-ene-1,2-dione] | 9.26 µM | – | – |
| Cc1[nH]c2ccccc2c1-c1c(-c2c[nH]c3ccc(Br)cc23)c(=O)c1=O [2x, 3-(5-Bromo-1H-indol-3-yl)-4-(2-methyl-1H-indol-3-yl)cyclobut-3-ene-1,2-dione] | > 30 µM | – | – |
| CN(CC[C@H](N)CC(=O)N[C@H]1C=C[C@H](n2ccc(N)nc2=O)O[C@@H]1C(=O)O)C(=N)N [BSD, Blasticidin, reference compound] | – | – | Inhibition at 3 µM [%] ([1]; 3 µM test compound, 48 h, P. falciparum NF54-luc erythrocytic stages): 97.6 ± 0.5%; IC50 ([1]; Table 1, 48 h incubation, luminescence viability readout, read-out: IC50 [µM], concentration for 50% inhibition of P. falciparum (NF54-luc strain) erythrocytic stages): 0.288 µM |
| CN1C(=O)C(c2c[nH]c3ccccc23)=C(c2c[nH]c3ccccc23)C1=O [compound 8, reference compound] | 4 µM | 34.6 ± 0.8% | – |
